Reference: US10086030B2, “Use of composition in preparing health care products or medicines for preventing and treating allergic diseases” (JIANGZHONG PHARMACEUTICAL CO., LTD., priority 2012, dated 2018)
Several values for one entry are separate records, joined by “and”; a condition that tells them apart may be missing. Equal entries are not always repeated.

Columns and labels:
[1] = tested on: allergic asthma in guinea pigs caused by a mixed gas of Ach and His; assay: Allergic asthma in guinea pigs caused by a mixed gas of Ach and His: latent period, total IgE in serum and BALF, EOS content in lung tissues; assay type: in vivo; conditions: for latent period of asthma, Before dosing: before dosing (baseline)
Description: 2.2 Effect on Allergic Asthma in Guinea Pigs Caused by a Mixed Gas of Ach and his
On day 1, guinea pigs were placed in a closed 4 L glass bell jar, into which a 1:1 mixture solution of 2% Ach and 0.4% His was sprayed by ultrasonic atomization for 15 s. After completion of spraying, the latent period of asthma induced in the guinea pigs was recorded (i.e., the period from the end of the spraying to asthmatic onsets, extreme difficulty in breathing till twitching and falling down). Animals having a latent period of asthma longer than 120 s were excluded.
Dual-antibody sandwich radioimmunoassay was employed.

[2] = tested on: allergic asthma in rats caused by OVA; assay: Allergic asthma in rats caused by OVA: latent period of asthma, serum IL-4 and IFN-γ, EOS content in lung tissues; assay type: in vivo, SD rats; conditions: dexamethasone 0.5 mg/kg; for latent period of asthma, Before dosing: before dosing (baseline)
[3] = tested on: allergic asthma in rats caused by OVA; assay: as above; assay type: in vivo, SD rats
Description: Rats (half thereof were male and the other half female) were randomly divided into two groups, i.e., a blank control group of 10 animals and a modeling group of 70 animals. After a successful modeling, the rats were randomly divided into the following groups: a model control group, a positive drug group (dexamethasone group), and groups on the low, medium, and high doses of Composition 3, with 10 animals in each group.
On day 1, all animals except those in the blank control group were sensitized by intraperitoneal injection with 1 ml suspension containing 10 mg OVA, 200 mg Al(OH)3 dry powder, and 6×10^9 inactivated pertussis vaccines in physiological saline, and were sensitized once again on day 8.
The daily intake of the test drug Composition 3 composite powder recommended for one person was 24 g crude drug/60 kg body weight. On the basis thereof, the calculated daily intake for a rat was: low dose group: 1.0 g crude drug/kg body weight; medium dose group: 2.0 g crude drug/kg body weight; high dose group: 6.0 g crude drug/kg body weight, which were 2.5, 5 and 15 times the daily intake for a human, respectively. […] The volume of intragastric administration was calculated as 1.0 ml/100 g body weight. The model control group was intragastrically given an equivalent volume of 0.9% physiological saline 30 minutes before challenging; and the positive drug group was given dexamethasone at a dose of 0.5 mg/kg 30 min before each challenging^[2]. The groups on the low, medium and high doses of Composition 3 were each intragastrically given the respective dose of the test drug 30 min before each challenging. […]
A ZH-100 respiratory transducer was tied around the thoracic cage of each rat (the tension was adjusted to about 1 to 2 g so that the amplitude of the respiratory wave was 1 to 2 my). […] The acquisition system was turned on and a segment of normal respiratory wave was recorded. Then ultrasonic atomization with 1% OVA was applied for 20 min, and the respiratory waves of induced asthma in the rats were continuously recorded over 30 min after the atomization was initiated. Meanwhile, the period from the beginning of atomization to occurrence of symptoms (indicated by the first twitch) was visually observed and recorded as the latent period of asthma.
24 h after the final challenge, the rats were anaesthetized by intraperitoneal injection with 3% sodium pentobarbital (30 mg/kg). 5 to 10 ml blood was drawn, and serum IL-4 and IFN-γ levels were measured by ELISA.
The left lung tissues were cut off and fixed in 4% polyformaldehyde for 4 to 5 h, then washed with water, dehydrated with an alcohol gradient, and immersed and embedded in paraffine. HE staining was performed with a successive sectioning process, inflammatory changes in the tissues were observed, and EOS infiltration was counted. For each section, 10 fields were randomly chosen under a microscope at high magnification (×400) by the same observer, and the numbers of EOS infiltration around bronchus and vessels were calculated and averaged as the representative value for this section.
The daily intake of the test drug Composition 4 composite powder recommended for one person was 24 g crude drug/60 kg body weight. On the basis thereof, the calculated daily intake for a rat was: low dose group: 1.0 g crude drug/kg body weight; medium dose group: 2.0 g crude drug/kg body weight; high dose group: 6.0 g crude drug/kg body weight, which were 2.5, 5 and 15 times the daily intake for a human, respectively.

[4] = baseline, positive control group (dexamethasone 0.5 mg/kg)
[5] = dexamethasone 0.5 mg/kg, Composition 6 study
[6] = dexamethasone 0.5 mg/kg, Composition 7 study
[7] = dexamethasone 0.5 mg/kg, Composition 5 study
[8] = positive control dexamethasone 0.5 mg/kg, 21 days

For `C[C@@H]1C[C@H]2[C@@H]3CCC4=CC(=O)C=C[C@]4(C)[C@@]3(F)[C@@H](O)C[C@]2(C)[C@@]1(O)C(=O)CO` [dexamethasone], the “total IgE in BALF” value ([1]; BALF, positive control group, 0.5 mg/kg) was 3.62 ± 0.62^ΔΔ U/L, the “latent period of asthma, After dosing” value ([1]; after dosing, dexamethasone 0.5 mg/kg, Composition 6 study) was 155.78 ± 16.29^ΔΔ and the “latent period of asthma, After dosing” value ([1]; after dosing, dexamethasone 0.5 mg/kg, Composition 7 study) was 150.46 ± 16.80^ΔΔ. The “latent period of asthma induced in guinea pigs, after dosing” value ([1]; after dosing, positive control group, 0.5 mg/kg) was 156.77 ± 16.18^ΔΔ, the “latent period of asthma induced, Before dosing” value [1, 4] was 77.32 ± 13.95 and 75.63 ± 9.09 and 75.65 ± 9.10 and the “latent period of asthma induced in guinea pigs, before dosing” value ([1]; before dosing (after modeling), positive control group, 0.5 mg/kg) was 74.63 ± 9.04. For the same compound, the “latent period of asthma, Before dosing” value [1, 5] was 75.62 ± 9.10, the “latent period of asthma, Before dosing” value [1, 6] was 70.68 ± 9.65 and the “EOS content in lung tissues” value [1, 7] was 30.77 ± 7.21^ΔΔ cells/HP. For the same compound, the “total IgE in BALF” value [1, 7] was 3.70 ± 0.73^ΔΔ U/L, the “total IgE in serum” value [1, 7] was 3.74 ± 1.32^ΔΔ U/L and the “EOS content in lung tissues” value [1, 5] was 30.80 ± 7.23^ΔΔ cells/HP. The “total IgE in BALF” value [1, 5] was 3.71 ± 0.70^ΔΔ U/L, the “total IgE in serum” value [1, 5] was 3.74 ± 1.30^ΔΔ U/L and the “EOS content in lung tissues” value [1, 6] was 31.70 ± 9.52^ΔΔ cells/HP. The “total IgE in BALF” value [1, 6] was 3.50 ± 0.78^ΔΔ U/L, the “total IgE in serum” value [1, 6] was 3.70 ± 1.26^ΔΔ U/L and the “EOS content in guinea pigs' lung tissues” value ([1]; lung tissues, positive control group, 0.5 mg/kg) was 30.69 ± 7.35^ΔΔ cells/HP. For the same compound, the “EOS content in lung tissues” value [1, 8] was 31.78 ± 7.55^ΔΔ cells/HP and 30.79 ± 7.25^ΔΔ cells/HP, the “latent period of asthma induced, After dosing” value [1, 8] was 160.92 ± 19.72^ΔΔ and 155.77 ± 16.28^ΔΔ and 155.78 ± 16.24^ΔΔ and the “total IgE in BALF” value [1, 8] was 3.49 ± 0.82^ΔΔ U/L and 3.72 ± 0.72^ΔΔ U/L. The “total IgE in serum” value [1, 8] was 3.58 ± 1.19^ΔΔ U/L and 3.75 ± 1.31^ΔΔ U/L, the “total IgE in serum” value ([1]; serum, positive control group, 0.5 mg/kg) was 3.65 ± 1.21^ΔΔ U/L and the “latent period of asthma, After dosing” value ([2]; Composition 6 study) was 159.78 ± 20.27^ΔΔ. The “latent period of asthma, After dosing” value ([2]; Composition 7 study) was 156.30 ± 21.44^ΔΔ, the “latent period of asthma, After dosing” value ([2]; Composition 8 study) was 159.87 ± 20.38^ΔΔ and the “latent period of asthma, Before dosing” value ([2]; Composition 6 study) was 74.67 ± 11.10. For the same compound, the “latent period of asthma, Before dosing” value ([2]; Composition 7 study) was 72.88 ± 10.96, the “latent period of asthma, Before dosing” value ([2]; Composition 8 study) was 73.66 ± 11.19 and the “EOS content in lung tissues” value ([2]; Composition 6 study) was 28.40 ± 4.25^ΔΔ cells/HP. For the same compound, the “IFN-γ (serum)” value ([2]; Composition 6 study) was 20.27 ± 4.89^ΔΔ pg/ml, the “IL-4 (serum)” value ([2]; Composition 6 study) was 13.50 ± 4.32^ΔΔ pg/ml and the “EOS content in lung tissues” value ([2]; Composition 7 study) was 35.64 ± 6.18^ΔΔ cells/HP. The “IFN-γ (serum)” value ([2]; Composition 7 study) was 19.29 ± 4.04^ΔΔ pg/ml, the “IL-4 (serum)” value ([2]; Composition 7 study) was 12.90 ± 4.67^ΔΔ pg/ml and the “EOS content in lung tissues” value ([2]; Composition 8 study) was 28.39 ± 4.26^ΔΔ cells/HP. For the same compound, the “IFN-γ (serum)” value ([2]; Composition 8 study) was 20.16 ± 4.96^ΔΔ pg/ml, the “IL-4 (serum)” value ([2]; Composition 8 study) was 13.41 ± 4.21^ΔΔ pg/ml and the “latent period of asthma induced, Before dosing” value [3, 4] was 75.84 ± 12.36 and 74.66 ± 11.09 and 74.64 ± 11.03. The “latent period of asthma induced, After dosing” value ([3]; positive control dexamethasone 0.5 mg/kg 30 min before each challenge, 21 days) was 162.61 ± 17.88^ΔΔ and 159.77 ± 20.28^ΔΔ and 160.21 ± 20.32^ΔΔ, the “EOS content in lung tissues” value [3, 8] was 27.51 ± 4.31^ΔΔ cells/HP and 28.39 ± 4.26^ΔΔ cells/HP and 28.42 ± 4.24^ΔΔ cells/HP and the “serum IFN-γ” value [3, 8] was 20.51 ± 4.65^ΔΔ pg/ml and 20.26 ± 4.86^ΔΔ pg/ml and 20.27 ± 4.88^ΔΔ pg/ml. The “serum IL-4” value [3, 8] was 12.88 ± 4.13^ΔΔ pg/ml and 13.51 ± 4.31^ΔΔ pg/ml and 13.50 ± 4.28^ΔΔ pg/ml.
